From patent US20250177346A1 (priority 2022, published 2025)

Experiments:
[1] = test system: hair dermal papilla cells (HDPCs) derived from human hair follicles; assay type: cell-based
human hair follicles [2] = assay type: cell-based
human hair follicles [3] = assay type: cell-based; remark: listed apart in the source
[4] = test system: outer root sheath cells derived from human hair follicles; assay type: cell-based
[5] = test system: outer root sheath cells derived from human hair follicles; assay type: cell-based; remark: listed apart in the source
C57BL/6 mouse model [6] = conditions: in vivo
[7] = test system: outer root sheath cells (ORSs) derived from human hair follicles; assay type: cell-based
[8] = test system: hair dermal papilla cells derived from human hair follicles; assay type: cell-based
C57BL/6 mouse model [9] = conditions: in vivo; remark: listed apart in the source
[10] = test system: human hair dermal papilla cells; assay type: cell-based

## O=C(NCc1ccc2c(c1)OCO2)c1c(Cl)cccc1Cl [Alda-1, N-(1,3-benzodioxol-5-ylmethyl)-2,6-dichlorobenzamide]
[1]
  cell viability of hair dermal papilla cells: significantly increased
  proliferation of hair dermal papilla cells compared with minoxidil: equivalent to or greater than those of minoxidil
Human hair follicles [2]
  Ki-67 positive cell effect compared with minoxidil: even better than that of minoxidil
  level of Ki-67 positive cells in hair follicles: increased
Human hair follicles [3]
  elongation of hair in human hair follicles: promoted the elongation of hair
  growth of hair in hair follicles compared with minoxidil: higher levels compared to minoxidil
[4]
  ATP production of mitochondria, increase: ~10 fold
  basal respiration rate: remarkably increased
  maximal respiration rate: remarkably increased
  oxygen consumption efficiency of outer root sheath cells: increased
[5]
  oxidative stress in outer root sheath cells (DCFDA level, flow cytometry): significantly reduced
C57BL/6 mouse model [6]
  anagen induction score: increased compared to the control
  formation of hair follicles (hematoxylin and eosin staining): promoted
  percentage of areas where hair in the anagen phase grew: significantly increased
  skin thickness: increased compared to the control
[7]
  cell viability of outer root sheath cells: significantly increased
  proliferation of outer root sheath cells compared with minoxidil: equivalent to or greater than those of minoxidil
[8]
  fluorescence level indicating DCFDA (oxidative stress): significantly reduced
C57BL/6 mouse model [9]
  hair growth / area of hair growth in the anagen phase: hair growth was shown
[10]
  protein level of basic fibroblast growth factor (bFGF): increased
  protein level of insulin-like growth factor 1 (IGF-1): increased
  protein level of keratinocyte growth factor (FGF-7): increased
  protein level of platelet-derived growth factor (PDF): increased

## Nc1cc(N2CCCCC2)nc(N)[n+]1[O-] [minoxidil, 6-piperidin-1-ylpyrimidine-2,4-diamine 3-oxide]
C57BL/6 mouse model [9]
  hair growth / area of hair growth in the anagen phase: hair growth was shown
